Test results as given in US20210393621A1, “COMBINATION SEROTONIN SPECIFIC REUPTAKE INHIBITOR AND SEROTONIN 1A RECEPTOR PARTIAL AGONIST FOR REDUCING L-DOPA-INDUCED DYSKINESIA” (The Research Foundation for The State University of new York, priority 2018, published 2021).
Where two headings read alike, the source gives them in different places.

Assays:
5-HT2C = 5-HT2C (Homo sapiens, UniProt P28335); settings: cited from earlier work
5-HT1A receptor [1] = target: T1, 5-HT1A receptor (Homo sapiens, UniProt P08908); settings: cited from earlier work
T1 sequence (P08908 1-422): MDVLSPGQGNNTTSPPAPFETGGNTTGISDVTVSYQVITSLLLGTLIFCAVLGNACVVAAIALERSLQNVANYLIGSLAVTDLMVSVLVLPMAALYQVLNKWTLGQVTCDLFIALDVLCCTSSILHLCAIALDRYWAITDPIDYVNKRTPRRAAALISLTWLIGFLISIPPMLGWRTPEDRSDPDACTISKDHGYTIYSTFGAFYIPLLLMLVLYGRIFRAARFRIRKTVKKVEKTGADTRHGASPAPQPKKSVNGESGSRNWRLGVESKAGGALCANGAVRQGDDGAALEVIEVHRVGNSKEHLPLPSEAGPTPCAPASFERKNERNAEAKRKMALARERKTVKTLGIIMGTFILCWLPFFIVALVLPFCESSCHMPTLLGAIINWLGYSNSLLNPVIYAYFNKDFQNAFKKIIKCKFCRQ

[2] = tested on: 6-OHDA-lesioned hemi-parkinsonian rats; assay: Experiment 2: AIMs, LID development in L-DOPA-naive hemi-parkinsonian rats; assay type: in vivo, Sprague-Dawley rats; settings: treatment naive rats; VZD 10 or 20 mg/kg + L-DOPA 6 mg/kg, 3 weeks; vs Vilazodone (0 mg/kg)+L-DOPA (6 mg/kg)
Description: Baseline forepaw adjusting step (FAS) data was collected 3 weeks after sham or […] lesion surgery, but prior to LD exposure. Sham animals received daily VZD (0 mg/kg)+L-DOPA (0 mg/kg) and 6-OHDA-lesioned animals received daily VZD (0, 10 or 20 mg/kg; s.c.)+LD (6 mg/kg; s.c.). All VZD injections were administered 5 min prior to LD. (FIG. 2A) AIMs and (FIG. 2B) FAS were evaluated on days 1, 8, 15, and 22. AIMs values expressed are the median sum of axial, limb, and orolingual (ALO) behaviors. ALO AIMs were evaluated every 10 min for 3 h post-LD administration. Values are expressed as medians [±median absolute difference (M.A.D.)]. FAS were evaluated 60 min post LD and are expressed as the mean overall steps […] to lesion multiplied by 100.
After recovery, FAS established baseline motor disability. 6-OHDA-lesioned animals were divided into 3 equally disabled groups. […] AIMs ([…]) and FAS (FIG. 2B) were measured on Days 1, 8, 15, and 22 of treatment.
Beginning 10 min post-treatment, a trained and blinded observer assigned a severity score (0-4) to each of the ALO AIMs based on 1 min ratings every 10 min for 3 h: 0, not present; 1, present from 1-29 s; 2, present 30-59 s; 3, present all 60 s, but interruptible by a cylinder tap; 4, present 60 s and not interruptible by a cylinder tap.

SERT = target: T2, SERT (Rattus norvegicus, UniProt P31652); settings: rat cortex and hippocampus ex vivo, cited from earlier work
T2 construct: 50% occupancy at 1-3 mg/kg in rat cortex and hippocampus ex vivo; from tissue; host or cells: rat cortex and hippocampus
T2 sequence (P31652 whole entry): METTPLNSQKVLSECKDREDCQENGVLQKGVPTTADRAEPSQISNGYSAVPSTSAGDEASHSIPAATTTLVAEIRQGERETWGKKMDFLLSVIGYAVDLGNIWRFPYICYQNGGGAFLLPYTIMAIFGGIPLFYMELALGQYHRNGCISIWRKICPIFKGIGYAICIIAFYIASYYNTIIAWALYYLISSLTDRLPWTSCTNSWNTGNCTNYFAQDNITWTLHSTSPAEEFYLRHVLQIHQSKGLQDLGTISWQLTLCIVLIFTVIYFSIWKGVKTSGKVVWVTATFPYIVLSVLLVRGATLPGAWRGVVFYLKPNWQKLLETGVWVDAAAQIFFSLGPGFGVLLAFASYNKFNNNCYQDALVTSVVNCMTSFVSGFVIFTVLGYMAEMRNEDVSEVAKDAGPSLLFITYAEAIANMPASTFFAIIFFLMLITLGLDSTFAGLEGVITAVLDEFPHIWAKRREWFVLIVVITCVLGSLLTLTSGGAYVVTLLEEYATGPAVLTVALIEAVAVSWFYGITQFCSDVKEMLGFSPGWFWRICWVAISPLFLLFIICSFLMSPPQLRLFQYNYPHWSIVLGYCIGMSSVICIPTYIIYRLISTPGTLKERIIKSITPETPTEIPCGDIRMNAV

5-HT1D = 5-HT1D (Homo sapiens, UniProt P28221); settings: cited from earlier work
5-HT1D, sequence (P28221 whole entry, species assumed): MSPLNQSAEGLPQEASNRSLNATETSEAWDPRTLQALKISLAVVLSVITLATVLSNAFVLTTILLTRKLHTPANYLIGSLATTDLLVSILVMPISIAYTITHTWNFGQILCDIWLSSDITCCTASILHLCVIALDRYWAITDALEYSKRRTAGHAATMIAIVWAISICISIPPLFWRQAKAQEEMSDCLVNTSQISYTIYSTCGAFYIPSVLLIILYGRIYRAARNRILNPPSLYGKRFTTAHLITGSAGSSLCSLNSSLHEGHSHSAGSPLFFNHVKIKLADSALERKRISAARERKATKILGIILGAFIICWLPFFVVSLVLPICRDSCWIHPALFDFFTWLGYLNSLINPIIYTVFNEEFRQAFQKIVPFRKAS

[3] = tested on: striatal and raphe tissue monoamines; assay: Experiment 1: HPLC of tissue monoamines and metabolites in striatum and dorsal raphe nucleus; settings: for 5-HIAA / 5-HT / 5-HT Turnover / DA Turnover / DOPAC / DA: 60 min post-LD
Description: Three-weeks post-lesion, animals were divided into 2 equally disabled groups, measured by forepaw adjusting steps (FAS, see below). One group (n=8) began receiving 14 days of daily vehicle (0.9% NaCl+0.1% ascorbic acid) and the other (n=22) received L-DOPA methyl ester (6 mg/kg, s.c.; Sigma)+DL-serine 2-(2,3,4-trihydroxybenzyl) hydrazine hydrochloride (benserazide; 15 mg/kg, s.c.; Sigma), hereafter L-DOPA, dissolved in vehicle at a volume of 1 mg/kg. Treatment persisted for 14 days to produce stable AIMs expression (Putterman et al., 2007; Conti et al., 2014). Thereafter, L-DOPA-treated animals with Axial, Limb, and Orolingual (ALO) AIMs (see description below, FIG. 1A)<30 were excluded from the study and the remaining L-DOPA-treated animals were divided into 3 equally dyskinetic groups. […] Daily injections continued over 23 days, with behavior assayed on Days 15, 22, 29, and 36. On Day 37, animals were killed 60 min post-treatment Left and right dorsal striata and DRN were dissected and flash frozen for HPLC analyses.
High-performance liquid chromatography (HPLC): HPLC, a method for semi-automated catecholamine analysis with coulometric detection, was performed according to prior protocols (Bishop et al., 2009) to determine the tissue levels of monoamines, their metabolites, and monoamine turnover in the striatum and DRN. The limit of detection for DOPAC, DA, 5-hydroxyindoleacetic acid (5-HIAA) and 5-HT was 10^−10 M. Final oxidation current values were plotted on a standard curve from 10^−6 M to 10^−9 M and expressed as pg of monoamine or metabolite per mg of tissue unless otherwise specified.
On the final treatment day, animals were sacrificed 60 min post-LD treatment and left and right striata and dorsal raphe nucleus (DRN) were collected for high performance liquid chromatography (HPLC) analysis. Values (means±standard mean error) are expressed as picograms of monoamine or metabolite per milligram wet tissue weight. Turnover estimates were determined by dividing a subjects metabolite value by its corresponding monoamine. Differences were assessed by a 2×4 (lesion×treatment) ANOVA, followed by Fisher's LSD post-hocs when appropriate. *p<0.01 vs lesion vs intact; +p<0.05 vs all; ^p<0.05 vs VZD (0)+LD (0); #p<0.05 vs VZD (0)+LD (6)

[4] = tested on: MSNs of dyskinetic 6-OHDA-lesioned rats; assay: Example 2: electrophysiology of corticostriatal transmission and striatal MSN activity; assay type: in vivo; settings: vilazodone co-administration with L-DOPA
Description: Rats were treated for 5 consecutive days/week, for 2 weeks. On the second day of each week, stepping tests were performed prior to drug administration, and 60 minutes post L-DOPA treatment. Behavioral assessment of LIDs was performed (30-180 min) at the end of each week. […] Electrophysiological studies were conducted to assess the impact of these treatments on corticostriatal transmission and striatal neuronal activity.

[5] = cited from earlier work
5-HT1A receptor [6] = target: T1, 5-HT1A receptor; set-up: expressed in transfected cells; host or cells: SF9 cells; settings: 5-HT1A receptor expressed in SF9 cells; cited from earlier work
[7] = Dorsal Raphe Nucleus, VZD(10) + LD(6) mg/kg
[8] = Dorsal Raphe Nucleus, VZD(20) + LD(6) mg/kg
[9] = Striatum, Intact, VZD(10) + LD(6) mg/kg
[10] = Striatum, Intact, VZD(20) + LD(6) mg/kg
[11] = Striatum, Lesion, VZD(10) + LD(6) mg/kg
[12] = Striatum, Lesion, VZD(20) + LD(6) mg/kg
[13] = administered with either a fatty or light meal

5-HT2C, sequence (P28335 33-458, species assumed): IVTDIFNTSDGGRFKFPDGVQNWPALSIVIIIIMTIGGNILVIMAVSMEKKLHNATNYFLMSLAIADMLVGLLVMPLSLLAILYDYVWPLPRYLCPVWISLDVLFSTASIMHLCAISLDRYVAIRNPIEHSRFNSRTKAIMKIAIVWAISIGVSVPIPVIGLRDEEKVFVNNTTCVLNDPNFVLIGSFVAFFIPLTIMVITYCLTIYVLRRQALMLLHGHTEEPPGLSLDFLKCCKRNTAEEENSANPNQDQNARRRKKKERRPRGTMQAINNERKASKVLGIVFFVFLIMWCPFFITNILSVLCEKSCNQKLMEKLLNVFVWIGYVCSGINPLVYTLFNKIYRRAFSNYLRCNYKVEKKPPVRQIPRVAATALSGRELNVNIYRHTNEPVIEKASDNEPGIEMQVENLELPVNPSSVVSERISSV

Cl.N#Cc1ccc2[nH]cc(CCCCN3CCN(c4ccc5oc(C(N)=O)cc5c4)CC3)c2c1 [Vilazodone, 5-{4-[4-(5-cyano-3-indolyl)-butyl]-1-piperazinyl}-benzofuran-2-carboxamide hydrochloride]
affinity for 5-HT2C (5-HT2C): negligible affinity
5-HT1A receptor IA (5-HT1A receptor [1]): 60-70%
ALO AIMs, development of LID [2]: significantly attenuated the development of LID
SERT occupancy (SERT; 10 mg/kg): 100%
SERT occupancy (SERT; 1-3 mg/kg): 50%
affinity for 5-HT1D (5-HT1D): negligible affinity
5-HIAA [3, 7]: 2541 ± 187^ picograms per milligram wet ti
5-HT [3, 7]: 7013 ± 462^^ picograms per milligram wet ti
5-HT Turnover [3, 7]: 0.37 ± 0.02
DA Turnover [3, 7]: 7.60 ± 0.78
DOPAC [3, 7]: 1175 ± 234 picograms per milligram wet ti
5-HIAA [3, 8]: 1985 ± 345^ picograms per milligram wet ti
5-HT [3, 8]: 5946 ± 776^ picograms per milligram wet ti
5-HT Turnover [3, 8]: 0.32 ± 0.03
DA [3, 8]: 128 ± 15.2 picograms per milligram wet ti
DA Turnover [3, 8]: 7.19 ± 1.12
DOPAC [3, 8]: 909 ± 186 picograms per milligram wet ti
5-HIAA [3, 9]: 470 ± 35.5 picograms per milligram wet ti
5-HT [3, 9]: 326 ± 24.3 picograms per milligram wet ti
5-HT Turnover [3, 9]: 1.45 ± 0.04
DA [3, 9]: 4827 ± 222 picograms per milligram wet ti
DA Turnover [3, 9]: 0.85 ± 0.05
DOPAC [3, 9]: 4138 ± 332^ picograms per milligram wet ti
5-HIAA [3, 10]: 422 ± 38.6 picograms per milligram wet ti
5-HT [3, 10]: 305 ± 33.5 picograms per milligram wet ti
5-HT Turnover [3, 10]: 1.41 ± 0.07
DA [3, 10]: 4560 ± 337 picograms per milligram wet ti
DA Turnover [3, 10]: 0.84 ± 0.03
DOPAC [3, 10]: 3839 ± 306 picograms per milligram wet ti
5-HIAA [3, 11]: 842 ± 78.8 picograms per milligram wet ti
5-HT [3, 11]: 261 ± 30.7 picograms per milligram wet ti
5-HT Turnover [3, 11]: 3.38 ± 0.31
DA [3, 11]: 128 ± 14.2 picograms per milligram wet ti
DA Turnover [3, 11]: 1.56 ± 0.18
5-HIAA [3, 12]: 596 ± 55.1+ picograms per milligram wet ti
5-HT [3, 12]: 223 ± 23.8 picograms per milligram wet ti
5-HT Turnover [3, 12]: 2.84 ± 0.33^
DA [3, 12]: 128 ± 26.2 picograms per milligram wet ti
DA Turnover [3, 12]: 1.50 ± 0.15
DOPAC [3, 12]: 190 ± 44.6 picograms per milligram wet ti
DRN 5-HT ([3]; Vilazodone 10 mg/kg + L-DOPA): significantly increased DRN 5-HT
striatal 5-HT Turnover ([3]; Vilazodone 20 mg/kg, compared to Vilazodone (0 mg/kg)+L-DOPA (0 mg/kg)): reduced 5-HT Turnover
striatal 5-HIAA (printed 5-HIM) ([3]; Vilazodone 20 mg/kg, compared to all other treatments): attenuated 5-HIM
DRN DA Turnover ([3]; Vilazodone 10 or 20 mg/kg + L-DOPA): attenuated
DA in the lesioned striatum ([3]; both doses (10, 20 mg/kg) + L-DOPA vs groups receiving Vilazodone vehicle): significantly increased DA
DRN 5-HT Turnover ([3]; both doses of Vilazodone + L-DOPA): attenuated 5-HT Turnover
spike probability and onset latency [4]: normalizes spike probability and onset latency
AUC increase [5, 13]: 64%-85%
Cmax increase [5, 13]: 147%-160%
bioavailability ([5]; under fed conditions): 72%
increase of [35S]GTPγS binding compared to vehicle (5-HT1A receptor [6]): fourfold
